Reference: patent US8518952B2, “6 substituted 2-heterocyclylamino pyrazine compounds as CHK-1 inhibitors” (Pfizer Inc., priority 2008, dated 2013)
Like-named read-outs stand apart in the source and are kept apart here.

Key:
[1] = molecular target: T1, CHK1 (kinase domain) (Homo sapiens, UniProt O14757); test: CHK1 Ki determination, spectrophotometric coupled (pyruvate kinase/lactate dehydrogenase) assay; type: biochemical; conditions: CHK-1 kinase domain; for Ki: 150 uM ATP, 125 uM Syntide 2; for percent inhibition (where no Ki data is available): inhibitor concentration not given
T1 construct: a solution containing 1 nM of CHK1 (kinase domain)
T1 sequence (O14757 9-265 limits assumed): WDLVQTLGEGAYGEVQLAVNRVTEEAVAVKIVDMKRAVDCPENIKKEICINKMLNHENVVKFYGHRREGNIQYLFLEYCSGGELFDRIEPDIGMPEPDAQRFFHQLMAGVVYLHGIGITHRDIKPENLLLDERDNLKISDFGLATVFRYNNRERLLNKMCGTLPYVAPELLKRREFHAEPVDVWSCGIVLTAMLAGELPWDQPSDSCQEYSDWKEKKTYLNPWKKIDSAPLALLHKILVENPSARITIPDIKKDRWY
Outline: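 The CHK1 kinase domain was pre-incubated with compound for 15 min, and the reaction was started with 125 uM Syntide 2 and 150 uM ATP. ADP formation was coupled through pyruvate kinase/lactate dehydrogenase to NADH oxidation, read as the A340 decrease. Kiapp was fitted with a tight-binding equation that accounts for enzyme concentration and ATP Km; some entries are % inhibition.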

[2] = system: HeLa cells; test: Histone H3 (Ser10) phosphorylation ELISA, abrogation of camptothecin-induced G2 arrest (CHK-1 cellular assay); type: cell-based; conditions: HeLa cells, camptothecin 8 hrs, then compound with nocodozole 16 hours, read-out: EC50
Outline: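 HeLa cells, or MiaPaCa-2 where marked, received camptothecin for 8 h, then compound with nocodazole for 16 h. Ser10-phosphorylated histone H3 in lysates was measured by ELISA with a biotinylated antibody, streptavidin-HRP and TMB. EC50 came from four-parameter sigmoid fits.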

SMILES | Ki [1] | EC50 ([2]; Homo sapiens, HeLa) | percent inhibition (where no Ki data is available) [1] | EC50 [2]
CC(Oc1ccn2c(-c3cncc(N[C@@H]4CCNC4)n3)cnc2c1)C(F)(F)F (stereo partly drawn) [Example 136, N-[(3R)-pyrrolidin-3-yl]-6-[7-(2,2,2-trifluoro-1-methylethoxy)imidazo[1,2-a]pyridin-3-yl]pyrazin-2-amine] | 52 nM | 966 nM |  | 
C[C@@H]1NCCC[C@@H]1Nc1cncc(-c2cnc3ccccn23)n1 [Example 139, 6-imidazo[1,2-a]pyridin-3-yl-N-[(2S,3S)-2-methylpiperidin-3-yl]pyrazin-2-amine] | 9.7 nM | ≥ 10000 nM |  | 
C[C@H]1CNC[C@H]1Nc1cncc(-c2cnc3ccc(F)cn23)n1 [Example 141, 6-(6-fluoroimidazo[1,2-a]pyridin-3-yl)-N-[(3S,4S)-4-methylpyrrolidin-3-yl]pyrazin-2-amine] | 10 nM | 77.8 nM |  | 
C[C@@H]1CC[C@@H](Nc2cncc(-c3cnc4cnccn34)n2)CN1 [Example 146, 6-imidazo[1,2-a]pyrazin-3-yl-N-[(3R,6R)-6-methylpiperidin-3-yl]pyrazin-2-amine] | 19 nM | 493 nM |  | 
c1cn2c(-c3cncc(N[C@@H]4C[C@@H]5CN[C@H]4C5)n3)cnc2cn1 [Example 147, (1S,4R,6R)-N-(6-imidazo[1,2-a]pyrazin-3-ylpyrazin-2-yl)-2-azabicyclo[2.2.1]heptan-6-amine] | 12.9 nM | 295 nM |  | 
CC(C)(C)CCOc1ccn2c(-c3cncc(N[C@@H]4CCCNC4)n3)cnc2c1 [Example 148, 6-[7-(3,3-dimethylbutoxy)imidazo[1,2-a]pyridin-3-yl]-N-[(3R)-piperidin-3-yl]pyrazin-2-amine] |  | ≥ 10000 nM | 104%^ | 
CO[C@H]1CNC[C@H](Nc2cncc(-c3cnc4ccccn34)n2)C1 [Example 156, 6-(imidazo[1,2-a]pyridin-3-yl)-N-[(3R,5R)-5-methoxypiperidin-3-yl]pyrazin-2-amine] | 28.4 nM | 314 nM |  | 
c1ccn2c(-c3cncc(NC4CC5CNC4C5)n3)cnc2c1 (stereo not shown) [Example 159, N-[6-(imidazo[1,2-a]pyridin-3-yl)pyrazin-2-yl]-2-azabicyclo[2.2.1]heptan-6-amine] | 20.8 nM | 166 nM |  | 
C[C@@H]1NCCC[C@H]1Nc1cncc(-c2cnc3cnccn23)n1 [Example 167, 6-(imidazo[1,2-a]pyrazin-3-yl)-N-[(2S,3R)-2-methylpiperidin-3-yl]pyrazin-2-amine] | 101 nM | ≥ 10000 nM |  | 
C[C@@H]1NCCC[C@H]1Nc1cncc(-c2cnc3ccc(F)cn23)n1 [Example 168, 6-(6-fluoroimidazo[1,2-a]pyridin-3-yl)-N-[(2S,3R)-2-methylpiperidin-3-yl]pyrazin-2-amine] | 22.7 nM | ≥ 10000 nM |  | 
CC(C)c1cn2c(-c3cncc(N[C@@H]4CCCN[C@H]4C)n3)cnc2s1 [Example 169, N-[(2S,3R)-2-methylpiperidin-3-yl]-6-[2-(propan-2-yl)imidazo[2,1-b][1,3]thiazol-5-yl]pyrazin-2-amine] |  |  | 45.9%^ | 1850 nM
CCc1cn2c(-c3cncc(N[C@@H]4CCCN[C@H]4C)n3)cnc2s1 [Example 170, 6-(2-ethylimidazo[2,1-b][1,3]thiazol-5-yl)-N-[(2S,3R)-2-methylpiperidin-3-yl]pyrazin-2-amine] | 11.1 nM |  |  | 414 nM
C[C@H]1NCCC[C@@H]1Nc1cncc(-c2cnc3cnccn23)n1 [Example 171, 6-(imidazo[1,2-a]pyrazin-3-yl)-N-[(2R,3S)-2-methylpiperidin-3-yl]pyrazin-2-amine] |  | ≥ 10000 nM | 21.7%^ | 
C[C@H]1NCCC[C@@H]1Nc1cncc(-c2cnc3ccc(F)cn23)n1 [Example 172, 6-(6-fluoroimidazo[1,2-a]pyridin-3-yl)-N-[(2R,3S)-2-methylpiperidin-3-yl]pyrazin-2-amine] | 178 nM | ≥ 10000 nM |  | 
CC(C)c1cn2c(-c3cncc(N[C@H]4CCCN[C@@H]4C)n3)cnc2s1 [Example 173, N-[(2R,3S)-2-methylpiperidin-3-yl]-6-[2-(propan-2-yl)imidazo[2,1-b][1,3]thiazol-5-yl]pyrazin-2-amine] | 23.7 nM | ≥ 10000 nM |  | 
CCc1cn2c(-c3cncc(N[C@H]4CCCN[C@@H]4C)n3)cnc2s1 [Example 174, 6-(2-ethylimidazo[2,1-b][1,3]thiazol-5-yl)-N-[(2R,3S)-2-methylpiperidin-3-yl]pyrazin-2-amine] | 16.9 nM | ≥ 10000 nM |  | 
Cc1cn2c(-c3cncc(N[C@H]4CCCN[C@H]4C)n3)cnc2s1 [Example 175, 6-(2-methylimidazo[2,1-b][1,3]thiazol-5-yl)-N-[(2S,3S)-2-methylpiperidin-3-yl]pyrazin-2-amine] | 13.7 nM | 197 nM |  | 
C[C@@H]1NCCC[C@@H]1Nc1cncc(-c2cnc3sccn23)n1 [Example 179, 6-(imidazo[2,1-b][1,3]thiazol-5-yl)-N-[(2S,3S)-2-methylpiperidin-3-yl]pyrazin-2-amine] |  | 294 nM | 29.1%^ | 
CC(C)c1cn2c(-c3cncc(N[C@H]4CNC[C@H]4CF)n3)cnc2s1 [Example 184, N-[(3R,4R)-4-(fluoromethyl)pyrrolidin-3-yl]-6-[2-(propan-2-yl)imidazo[2,1-b][1,3]thiazol-5-yl]pyrazin-2-amine] |  | 66.4 nM | 109%^ | 

Further lines, results first:

Ki [1] | EC50 ([2]; Homo sapiens, HeLa) | percent inhibition (where no Ki data is available) [1] | EC50 [2] | SMILES
1.07 nM | 19.2 nM |  |  | Cc1cn2c(-c3cncc(N[C@@H]4CNC[C@@H]4C)n3)cnc2s1 [Example 140, 6-(2-methylimidazo[2,1-b][1,3]thiazol-5-yl)-N-[(3S,4S)-4-methylpyrrolidin-3-yl]pyrazin-2-amine]
1.11 nM | 119 nM |  |  | C[C@@H]1C[C@@H](Nc2cncc(-c3cnn4cc(Cl)ccc34)n2)CN1 [Example 143, 6-(6-chloropyrazolo[1,5-a]pyridin-3-yl)-N-[(3R,5R)-5-methylpyrrolidin-3-yl]pyrazin-2-amine]
8.1 nM | 389 nM |  |  | C[C@@H]1C[C@@H](Nc2cncc(-c3cnn4ccccc34)n2)CN1 [Example 145, N-[(3R,5R)-5-methylpyrrolidin-3-yl]-6-pyrazolo[1,5-a]pyridin-3-ylpyrazin-2-amine]
6.77 nM | ≥ 10000 nM |  |  | CCOc1ccc2ncn(-c3cncc(N[C@@H]4CCCNC4)n3)c2c1 [Example 149, 6-(6-ethoxy-1H-benzimidazol-1-yl)-N-[(3R)-piperidin-3-yl]pyrazin-2-amine]
5.91 nM | 284 nM |  |  | CC(C)Oc1ccc2ncn(-c3cncc(N[C@@H]4CCCNC4)n3)c2c1 [Example 150, 6-(6-isopropoxy-1H-benzimidazol-1-yl)-N-[(3R)-piperidin-3-yl]pyrazin-2-amine]
1.07 nM | 78.7 nM |  |  | OCc1ccc2ncc(-c3cncc(N[C@@H]4CCCNC4)n3)n2c1 [Example 151, (3-{6-[(3R)-piperidin-3-ylamino]pyrazin-2-yl}imidazo[1,2-a]pyridin-6-yl)methanol]
1.47 nM | 5.6 nM |  |  | COc1ccn2c(-c3cncc(N[C@H]4CNC[C@H]4c4ccccc4)n3)cnc2c1 [Example 152, 6-(7-methoxyimidazo[1,2-a]pyridin-3-yl)-N-[(3R,4R)-4-phenylpyrrolidin-3-yl]pyrazin-2-amine]
1.09 nM |  |  | 123 nM | CC(C)c1cn2c(-c3cncc(N[C@@H]4CCCN[C@@H]4C)n3)cnc2s1 [Example 165, N-[(2R,3R)-2-methylpiperidin-3-yl]-6-[2-(propan-2-yl)imidazo[2,1-b][1,3]thiazol-5-yl]pyrazin-2-amine]
4.79 nM |  |  | 123 nM | CCc1cn2c(-c3cncc(N[C@@H]4CCCN[C@@H]4C)n3)cnc2s1 [Example 166, 6-(2-ethylimidazo[2,1-b][1,3]thiazol-5-yl)-N-[(2R,3R)-2-methylpiperidin-3-yl]pyrazin-2-amine]
9.54 nM |  |  | 11.2 nM | Cc1cn2c(-c3cncc(N[C@@H]4CCCN[C@H]4C)n3)cnc2s1 [Example 176, 6-(2-methylimidazo[2,1-b][1,3]thiazol-5-yl)-N-[(2S,3R)-2-methylpiperidin-3-yl]pyrazin-2-amine]
2.01 nM | 31.2 nM |  |  | Cc1cn2c(-c3cncc(N[C@H]4CN[C@H](C)C4)n3)cnc2s1 [Example 178, 6-(2-methylimidazo[2,1-b][1,3]thiazol-5-yl)-N-[(3R,5R)-5-methylpyrrolidin-3-yl]pyrazin-2-amine]
1.5 nM | ≥ 10000 nM |  |  | C[C@H]1NCCC[C@H]1Nc1cncc(-c2cnc3sccn23)n1 [Example 180, 6-(imidazo[2,1-b][1,3]thiazol-5-yl)-N-[(2R,3R)-2-methylpiperidin-3-yl]pyrazin-2-amine]
5.4 nM | 53 nM |  |  | Cc1cn2c(-c3cncc(N[C@H]4CNC[C@H]4CF)n3)cnc2s1 [Example 183, N-[(3R,4R)-4-(fluoromethyl)pyrrolidin-3-yl]-6-(2-methylimidazo[2,1-b][1,3]thiazol-5-yl)pyrazin-2-amine]
